Where a name gives a salt, the structure may show the parent alone.
Tested on: TGF-beta
Test: Elimination of TGF-beta-mediated growth inhibition in Mv1Lu cells (Crystal Violet staining)
Assay type: cell-based
Conditions: lung epithelial cell line Mv1Lu, 1 ng/ml TGF-beta, 0.5% FCS, two days, absorption at 550 nm
Protocol: In-vitro (Enzyme) Assay for Determination of the Efficacy of the Inhibitors of the Inhibition of TGF-Beta-Mediated Effects
As an example, the ability of the inhibitors to eliminate TGF-beta-mediated growth inhibition is tested.
Cells of the lung epithelial cell line Mv1Lu are sown in a defined cell density in a 96-well microtitre plate and cultivated overnight under standard conditions. Next day, the medium is replaced by medium which comprises 0.5% of FCS and 1 ng/ml of TGF-beta, and the test substances are added in defined concentrations, generally in the form of dilution series with 5-fold steps. The concentration of the solvent DMSO is constant at 0.5%. After a further two days, Crystal Violet staining of the cells is carried out. After extraction of the Crystal Violet from the fixed cells, the absorption is measured spectrophotometrically at 550 nm. It can be used as a quantitative measure of the adherent cells present and thus of the cell proliferation during the culture.

| SMILES | IC50 (Mv1Lu, 48 h) | IC50 |
| --- | --- | --- |
| COc1ccc2c(c1)CCC(C)c1nnc(-c3cccc(C)n3)n1-2 (centres unmarked) [Compound A1, 8-methoxy-4-methyl-1-(6-methylpyridin-2-yl)-5,6-dihydro-4H-2,3,10b-triazabenz[e]azulene] | 3.9 µM |  |
| Cc1cccc(-c2nnc3n2-c2ccc(O)cc2CCC3C)n1 (centres unmarked) [Compound A2, 8-hydroxy-4-methyl-1-(6-methylpyridin-2-yl)-5,6-dihydro-4H-2,3,10b-triazabenzo[e]azulene] |  | 0.2 µM |
| Cc1cccc(-c2nnc3n2-c2ccc(Cl)cc2C(C)CC3)n1 (centres unmarked) [Compound A4, 8-chloro-6-methyl-1-(6-methylpyridin-2-yl)-5,6-dihydro-4H-2,3,10b-triazabenzo[e]azulene] | 9.9 µM |  |
| COc1ccc2c(c1)C(C)CCc1nnc(-c3cccc(C)n3)n1-2 (centres unmarked) [Compound A18, 8-Methoxy-6-methyl-1-(6-methylpyridin-2-yl)-5,6-dihydro-4H-2,3,10b-triazabenzo[e]azulene, trifluoroacetate] | 3.3 µM |  |
| Cc1cccc(-c2nnc3n2-c2ccc(O)cc2CCC3C)n1 (centres unmarked) [Compound A19, 8-Hydroxy-4-methyl-1-(6-methylpyridin-2-yl)-5,6-dihydro-4H-2,3,10b-triazabenzo[e]azulene] |  | 2.5 µM |

Source: patent publication US8063040B2, “Triazabenzo[E]azulene derivatives for the treatment of tumors” (Merck Patent Gesellschaft Mit Beschrankter Haftung, priority 2006, dated 2011)
